Assay results taken from patent US20260294849A1, “METHODS FOR TREATING CORNEAL INJURIES” (National Taiwan University, priority 2023, published 2026).
“Also recorded” adds a separate entry of the source. Where a name gives a salt, the structure may show the parent alone.

Key:
Assay type in all cases: in vivo, mice (nT/nG transgenic)
[1] = system: corneal endothelial cells; experiment: Corneal endothelial cell density after laser ablation (confocal cell counting); settings: for Corneal endothelial cell density: day 2 after laser ablation, intracameral injection, means±SEM, Control 728.5 ± 55.01, BSS 633 ± 33.7; for Protection of the corneal endothelial cells against injuries: order: Formoterol Sulfate>Formoterol PG>Formoterol BG>Formoterol>THBP>Permethrin>Fenbutrazate>Levonordefrin>Encainide>Bhilawanol A
Description: (§1) nT/nG transgenic mice (Jax #023035; the Jackson Laboratory), having a Cre-reporter allele comprising a cell nuclear-targeted tandem dimerTomato (tdTomato; an orange fluorescent protein) and an enhanced green fluorescent protein (EGFP) (Prigge, Wiley et al., 2013; “Nuclear double-fluorescent reporter for in vivo and ex vivo analyses of biological transitions in mouse nuclei.”), were used in the present study for investigating the cell density and the healing process in corneal endothelium. The mice were characterized in that, prior to Cre recombination, widespread fluorescence expression of tdTomato (localized to the cell nucleus) was observed; whereas following Cre recombination, nuclear-localized green fluorescence was detected. All procedures on mice were approved by and performed in accordance with the Institutional Animal Care and Use Committees of National Taiwan University.
(§2) To eliminate the corneal endothelial cells, the multiphoton femtosecond laser was employed to induce cell ablation due to its ability to precisely control cell ablation in time and space with minimal injury made to adjacent tissues (Rompolas, Deschene et al., 2012; “Live imaging of stem cell and progeny behaviour in physiological hair-follicle regeneration.”). Once the corneal endothelial cells needed to be removed were identified, laser ablation was performed on the selected area (50 μm×50 μm) with a 880 nm laser wavelength and a 500 mW laser power in a single scan, with repeatedly adjusting the laser along the z-axis to achieve optimal results.
(§3) Following laser ablation, the aforementioned drugs were intracamerally injected to the cornea of the mice immediately using a customized needle attached to a 5 μl syringe (Hamilton). To avoid the motion, a cotton swab was used to prop the eyeball during the intracameral injection above on the peripheral region of the cornea. Each eye was slowly applied with a single dose of 0.5 μl different drugs.
The mice were anesthesia and sacrificed on day 2 after laser ablation with the indicated treatments administered (as shown in FIGS. 1-3), and their eyes were enucleated and fixed in 4% paraformaldehyde (PFA) at 4° C. overnight. After dissecting the cornea from the eyeball, the cornea was cut into a four-petal shape, placed on glass slides, mounted with a mounting medium (Vector), and immobilized by using a coverslip. All the fluorescent images were acquired by a SP8 confocal microscope (Leica), with steps set at 1 μm per z-section for a 20× objective. The cell nuclear ware manually segmented by using spot plugin in Imaris (Oxford instruments). For each sample, a circle area with a diameter of 300 μm was selected to count the cell numbers, so as to quantify the cell density in different drug treatments.
All the experimental data were performed by Prism and represented as means±SEM. The statistical significance of difference between the experimental groups was evaluated by Student's t test. P values<0.05 were considered statistically significant.
The protective effect of the present compound(s) on the corneal endothelial cells against injuries was evaluated by counting the cell number and/or the density of the corneal endothelial cells, instead of the keratocytes in corneal stroma or the other cell populations in trabecular meshwork.

[2] = system: corneal endothelial cells; experiment: Corneal wound healing by multiphoton microscopy (intravital imaging) after laser ablation; settings: intracameral injection; for Corneal wound healing, Day 1: Day 1 after laser ablation, BSS group could not seal the wound defects; for Corneal wound healing, Day 2: Day 2 after laser ablation, BSS group: compromised integrity until Day 2
Description: as §1
For live image acquisition, mice were anesthetized by intramuscular injection of 50-80 mg/kg Zoletil (Virbac). The corneal surface was anesthetized with 0.4% oxybuprocaine hydrochloride (Sigma) in saline. An eye holder was used to minimize artifacts during intravital imaging, as previously described (Wu, Wang et al., 2019; “Intravital multiphoton microscopic imaging platform for ocular surface imaging.”). Intravital imaging was performed using a laser wavelength of 880 nm for tdTomato excitation and a laser power of approximately 35 mW at the sample plane to optimize the image quality without photobleaching. A water-immersion 20×/NA1.0 objective lens (Olympus) was used to focus the laser light onto the eyes, after the laser light was reflected by the main dichroic mirror (Semrock). The tdTomato signals were spectrally separated using a bandpass filter of 585/40 nm (Semrock). To prevent dryness of the ocular surface during imaging, an eye gel (Vidisic Gel, Dr. Gerhard Mann Chem-Pharm) with a refractive index of 1.338 was used as an immersion medium on the cornea. Image stacks along the z-axis with a step size of 1 μm were acquired, and the dimensions of the images acquired in this study were 512×512 pixels.
as §2, §3
The efficacy of the tested drugs in promoting the corneal wound healing was investigated by a multiphoton microscopy analysis, in which changes in the wound site following drug injection was tracked.

laser-injured cornea = experiment: Corneal observation (opacity, edema, ulcer formation, ocular surface) via gross images after laser ablation and intracameral injection; settings: for Ocular surface of the eye: Day 2 after laser ablation and intracameral injection, BSS group: mild inflammation and irritation; for Edema / Opacity / Ulcer formation: laser-injured cornea after treatment, single intracameral injection 0.5 μl, Day 2; for Edema: BSS group: mild edema; for Opacity: BSS group: slight opacity; for Ulcer formation: BSS group: slight ulcer formation
Description: as §1, §2, §3
The test compound(s) was/were intracamerally administered to the mice following laser ablation of the cornea, and then the corneal opacity was initially evaluated via gross images of the cornea.

Row | Molecule | Corneal endothelial cell density [1] | Protection of the corneal endothelial cells against injuries [1] | Corneal wound healing, Day 1 ([2]; 6 μM) | Ocular surface of the eye (laser-injured cornea) | Edema (laser-injured cornea) | Opacity (laser-injured cornea) | Ulcer formation (laser-injured cornea) | Corneal wound healing, Day 2 ([2]; 30 μM (238.875 ng/kg)) | Corneal wound healing, Day 2 ([2]; 6 μM)
1 | 2,2,4,4-Tetrahydroxybenzophenone [THBP] | 724 ± 12.8 cell number/the area of a circ | protected the corneal endothelial cells | accelerated wound healing and sealed the defects on Day 1 | maintained the ocular surface of the eye moist and transparent | No | No | No | – | –
2 | CCCCCC/C=C\CCCCCCCc1cccc(O)c1O [Bhilawanol A] | 674.3 ± 8 cell number/the area of a circ | protected the corneal endothelial cells | – | maintained the ocular surface of the eye moist and transparent | No | No | No | promoted wound healing on Day 2 | –
3 | COc1ccc(C(=O)Nc2ccccc2CCC2CCCCN2C)cc1 (stereo not drawn) [Encainide, reference compound] | 690 ± 8.8 cell number/the area of a circ | protected the corneal endothelial cells | – | maintained the ocular surface of the eye moist and transparent | No | No | No | – | promoted wound healing on Day 2
4 | CCC(C(=O)OCCN1CCOC(c2ccccc2)C1C)c1ccccc1 (stereo not drawn) [Fenbutrazate, reference compound] | 720.8 ± 14.9 cell number/the area of a circ | protected the corneal endothelial cells | – | maintained the ocular surface of the eye moist and transparent | No | slightly hazy spot formation; also recorded: Slight hazy | No | – | promoted wound healing on Day 2
5 | COc1ccc(CC(C)NCC(OC2O[C@H](C(=O)O)[C@@H](O)[C@H](O)[C@H]2O)c2ccc(O)c(NC=O)c2)cc1 (stereo partly drawn) [Formoterol BG, Formoterol Benzyl Glucuronide] | 796 ± 24.9 cell number/the area of a circ | protected the corneal endothelial cells | – | maintained the ocular surface of the eye moist and transparent | No | No | No | – | promoted wound healing on Day 2
6 | COc1ccc(C[C@@H](C)NC[C@H](O)c2ccc(O[C@@H]3O[C@H](C(=O)O)[C@@H](O)[C@H](O)[C@H]3O)c(NC=O)c2)cc1 [Formoterol PG, Formoterol Phenolic Glucuronide] | 799.5 ± 23.56 cell number/the area of a circ | protected the corneal endothelial cells | – | maintained the ocular surface of the eye moist and transparent | No | No | No | – | promoted wound healing on Day 2
7 | COc1ccc(C[C@@H](C)NC[C@H](O)c2ccc(OS(=O)(=O)O)c(NC=O)c2)cc1 [Formoterol Sulfate] | 805.25 ± 22.3 cell number/the area of a circ | protected the corneal endothelial cells | – | maintained the ocular surface of the eye moist and transparent | No | No | No | – | promoted wound healing on Day 2
8 | C[C@H](N)[C@H](O)c1ccc(O)c(O)c1 [Levonordefrin, reference compound] | 710.5 ± 41.7 cell number/the area of a circ | protected the corneal endothelial cells | accelerated wound healing and sealed the defects on Day 1 | maintained the ocular surface of the eye moist and transparent | No | No | No | – | –
9 | CC1(C)C(C=C(Cl)Cl)C1C(=O)OCc1cccc(Oc2ccccc2)c1 (stereo not drawn) [Permethrin, reference compound] | 721.8 ± 12.9 cell number/the area of a circ | protected the corneal endothelial cells | – | maintained the ocular surface of the eye moist and transparent | No | No | No | – | promoted wound healing on Day 2
